In patent publication US20240400547A1, “2,6-PIPERIDINEDIONE COMPOUND AND APPLICATION THEREOF” (MEDSHINE DISCOVERY INC., priority 2021, published 2024):
Structures can show the parent of a compound that is named as a salt.

Assays:
OCI-LY10 = test: Antiproliferative effect in lymphoma cell line OCI-LY10 (CellTiter-Glo); type: cell-based, human; settings: OCI-LY10, 5 days; for IC50: Homo sapiens, 120 h
Method: Experimental purpose: The experiment aims to evaluate the inhibitory effects of the test compounds on cell proliferation in the diffuse large B-cell lymphoma (DLBCL) cell lines OCI-LY10 and TMD-8.
(§1) The tumor cell lines were cultured in a 37° C., 5% CO2 incubator under the above culture conditions. Regular passage, and cells in logarithmic growth phase were taken for plating.
(§2) • (1) Cells were stained with trypan blue and viable cells were counted. • (2) The cell concentration was adjusted to an appropriate concentration.
• (3) 100 μL of cell suspension per well was added to the culture plate as shown above. • (4) The culture plate was cultured overnight in a 37° C., 5% CO2 incubator with 100% relative humidity.
Preparation of stock solution storage plate with 1000 times the initial concentration of the compound: The compound was serially diluted with DMSO from the highest concentration to the lowest concentration. The solution was prepared as needed each time.
4. Preparation of 1000× Compound Working Solution and Cell Treatment with Compounds • (1) Preparation of the working solution with 5 times the initial concentration of the compound: For 3-fold dilution of the compound, 30 μL of the compound from a stock solution at 1000-fold concentration was taken, and 20 μL of DMSO was added to the subsequent wells. Then, 10 μL was transferred from one concentration to the next in sequence. For 5-fold dilution of the compound, 30 μL of the compound from a stock solution at 1000-fold concentration was taken, and 24 μL of DMSO was added to the subsequent wells. Then, 6 μL was transferred from one concentration to the next in sequence. 20 μL of DMSO was added to the vehicle control. The 1000-fold concentrated compound was diluted 200 times with culture medium, i.e., 1 μL of the 1000-fold diluted compound is added to 199 μL of culture medium, and the mixture was homogenized using a pipette. • (2) Compound addition: 25 μL of the 5-fold compound solution was added to the cell culture plate. • (3) The 96-well cell plate was returned to the incubator to culture OCI-LY10 (with either 3-fold or 5-fold dilution, incubated with compounds added for 5 days) and TMD-8 (with either 3-fold or 5-fold dilution, incubated with compounds added for 5 days).
(§3) The following steps were performed according to the instructions of Promega CellTiter-Glo luminescent cell viability assay kit (Promega-G7573). • (1) CellTiter-Glo buffer was melted and brought to room temperature. • (2) CellTiter-Glo substrate was brought to room temperature. • (3) CellTiter-Glo working solution was prepared by adding 10 mL of CellTiter-Glo buffer to a vial of CellTiter-Glo substrate to dissolve the substrate. • (4) The mixture was slowly vortexed and shaken to be fully dissolved. • (5) The cell culture plate was taken out and left for 30 minutes to equilibrate to room temperature. • (6) 60 μL of CellTiter-Go working solution was added per well (equal to half the volume of cell culture medium per well). The cell plate was wrapped in aluminum foil to be protected from light. • (7) The culture plate was shaken on an orbital shaker for 2 minutes to induce cell lysis. • (8) The culture plate was left at room temperature for 10 minutes to stabilize the luminescent signal. • (9) The luminescent signal was detected on a 2104 EnVision plate reader.
(§4) The inhibition rate (IIR) of the test compound was calculated using the following formula: IR (%)=(1−RLU compound/RLU vehicle control)*100%. The inhibition rates of compounds at different concentrations were calculated in Excel, and then GraphPad Prism software was used to plot inhibition curves and calculate relevant parameters, including minimum inhibition rate, maximum inhibition rate, and IC50.

SU-DHL-2 = test: Antiproliferative effect in lymphoma cell line SU-DHL-2 (CellTiter-Glo); type: cell-based, human; settings: SU-DHL-2, 4 days; for IC50: Homo sapiens, 96 h
Method: Experimental purpose: The experiment aims to evaluate the inhibitory effects of the test compounds on cell proliferation in the lymphoma cell line SU-DHL-2.
as §1, §2
• (3) 50 μL of cell suspension per well was added to the culture plate as shown in the figure above. • (4) The culture plate was cultured overnight in a 37° C., 5% CO2 incubator with 100% relative humidity.
Compounds were added using the Echo655 instrument. The volume of compound added was 50 nL, with a final DMSO concentration of 0.1%. The culture plate was centrifuged at 1000 rpm for 1 minute, then incubated for 4 days in an incubator at 37° C., 5% CO2, and with 100% relative humidity.
as §3, with “adding” for “adding 10 mL of”, “substrate;” for “substrate.”, “25” for “60”, “CellTiter-Glo” for “CellTiter-Go”
as §4, with “(IR)” for “(IIR)”, “(%)=(1−(RLU” for “(%)=(1−RLU”, “compound/RLU blank control)/(RLU” for “compound/RLU”, “control−RLU blank control)×100%.” for “control)*100%.”

| IC50 (OCI-LY10) | IC50 (SU-DHL-2) | Structure (SMILES) | Maximum inhibition rate (OCI-LY10) | Maximum inhibition rate (SU-DHL-2) |
| --- | --- | --- | --- | --- |
| 25 nM |  | CC(C)(O)c1cc2nc([C@H]3CC[C@H](CN4CCN(CC(=O)Nc5ccc6c(ccc7onc(C8CCC(=O)NC8=O)c76)c5)CC4)CC3)sc2cc1NC(=O)c1cccc(C(F)(F)F)n1 (stereo partly shown) [Formate of WX020] | 94.96% |  |
|  | 0.91 nM | CC(C)(O)c1cc2nc([C@H]3CC[C@H](CN4CCN(CC(=O)Nc5ccc6c(C7CCC(=O)NC7=O)noc6c5)CC4)CC3)sc2cc1NC(=O)c1cccc(C(F)(F)F)n1 (stereo partly shown) [Formate of WX026] |  | 100.08% |
| 192 nM |  | O=C1CCC(c2coc3cc(NC(=O)CN4CCN(C[C@H]5CC[C@H](N6CC(NC(=O)c7coc(-c8ccnc(NCC9CC9)c8)n7)C(C(F)F)N6)CC5)CC4)ccc23)C(=O)N1 (stereo partly shown) [Hydrochloride of WX002] | 63.27% |  |
| 6.99 nM | 11.7 nM | O=C1CCC(c2noc3ccc4c(NC(=O)C(F)(F)C5CCN(CC6CCC(n7cc(NC(=O)c8coc(-c9ccnc(NCC%10CC%10)c9)n8)c(C(F)F)n7)CC6)CC5)cccc4c23)C(=O)N1 (stereo not shown) [Hydrochloride of WX018] | 99.92% | 100.27% |
| 24.4 nM |  | O=C1CCC(c2noc3cc(NC(=O)CN4CCN(C[C@H]5CC[C@H](n6cc(NC(=O)c7coc(-c8ccnc(NCC9CC9)c8)n7)c(C(F)F)n6)CC5)CC4)ccc23)C(=O)N1 (stereo partly shown) [Hydrochloride of WX025] | 97.39% |  |
| 85.2 nM |  | O=C1CCC(c2noc3c(NC(=O)CN4CCN(C[C@H]5CC[C@H](n6cc(NC(=O)c7coc(-c8ccnc(NCC9CC9)c8)n7)c(C(F)F)n6)CC5)CC4)cccc23)C(=O)N1 (stereo partly shown) [Hydrochloride of WX028] | 99.01% |  |
| 17 nM | 25.2 nM | O=C1CCC(c2coc3ccc4c(NC(=O)CN5CCN(C[C@H]6CC[C@H](n7cc(NC(=O)c8coc(-c9ccnc(NCC%10CC%10)c9)n8)c(C(F)F)n7)CC6)CC5)cccc4c23)C(=O)N1 (stereo partly shown) [Trifluoroacetate of WX011] | 93.42% | 99.89% |

| Structure (SMILES) | IC50 (OCI-LY10) | IC50 (SU-DHL-2) | Maximum inhibition rate (OCI-LY10) | Maximum inhibition rate (SU-DHL-2) |
| --- | --- | --- | --- | --- |
| O=C1CCC(c2noc3ccc4c(NC(=O)CN5CCN(C[C@H]6CC[C@H](n7cc(NC(=O)c8coc(-c9ccnc(NCC%10CC%10)c9)n8)c(C(F)F)n7)CC6)CC5)cccc4c23)C(=O)N1 (stereo partly shown) [Hydrochloride of WX014] | 13.7 nM | 28.7 nM | 94.54% | 93.55% |
